Assay results published in ChEMBL document CHEMBL1157539, “Thousands of chemical starting points for antimalarial lead identification” (Nature, 2010).

System: Plasmodium falciparum
Assay: GSK_TCMDC: Inhibition of Plasmodium falciparum 3D7 in whole erythrocytes, using parasite LDH activity as an index of growth.
Type: functional, organism-based
Settings: Plasmodium falciparum, 3D7

Row | Structure (SMILES) | XC50 [µM]
1 | O=C(N/N=C/c1nc2ccccc2[nH]1)c1cccc([N+](=O)[O-])c1 | 0.628
2 | Cc1cc(N/N=C/c2ccccc2[N+](=O)[O-])c2ccc(F)cc2n1 | 0.35
3 | CN1CCC(NCc2cccc(-c3ccc(S(=O)(=O)NCc4ccccc4)c(F)c3)c2)CC1 | 0.325
4 | C=CCc1cccc(CN2CCC(c3cc(O)nc(-c4ccccn4)n3)CC2)c1O | 1.1
5 | Cc1cccc2nc(-c3cccc(-c4cccc(NC(=O)c5cnccc5C(F)(F)F)c4)c3)[nH]c12 | 0.659
6 | Cc1cccc2nc(-c3ccc(-c4ccc(CN5CCN(CCO)CC5)cc4)s3)[nH]c12 | 0.712
7 | COc1ccc(NC(=O)c2ccc(NC(=O)c3ccc(Cl)cc3)cc2)cc1N1CCN(C)CC1 | 0.849
8 | CC(NC(=O)c1ccc(O)c(-c2ccc(Cl)c(Cl)c2)c1)C(=O)NCCN1CCCC1 (stereo unspecified) | 0.759
9 | O=C(Nc1ccc(-c2nc3ccccc3[nH]2)cc1)C1CCCN(C2CCC2)C1 (stereo unspecified) | 1.35
10 | COc1ccc(CNCCc2cccs2)cc1-c1ccc(S(=O)(=O)NCCN2CCCC2)cc1 | 0.655
11 | C=C(F)c1sc(CNCCCNc2nc3ccccc3[nH]2)c(C)c1Br | 0.367
12 | CC(C)(C)Oc1ccc(NC(=O)c2ccccc2O)cc1 | 1.01
13 | CN1C(=C2SC(=Nc3ccc4ncccc4c3)N(Cc3ccccc3)C2=O)Sc2ccc(Cl)cc21 | 1.06
14 | N#Cc1ccc2c(c1)CCN(CCC1CCC(NC(=O)/C=C/c3ccc4ccccc4c3)CC1)CC2 (stereo unspecified) | 0.724
15 | O=S(=O)(NCCN1CCCC1)c1ccc(-c2ccc(CNCc3ccccc3)cc2)cc1 | 0.775
16 | CC1(C)CCCN(c2ncc(-c3cccc(CNCc4ccccc4O)c3)cn2)C1 | 0.886
17 | Cc1[nH]c2ccc(O)cc2c1C1CCN(CC2CCC(NC(=O)/C=C/c3c(Cl)cccc3Cl)CC2)CC1 (stereo unspecified) | 0.817
18 | O=C(Nc1ccc(C(=O)N(Cc2ccc3c(c2)OCO3)C2CCCC2)cc1)c1cccs1 | 0.65
19 | CCCc1cc(OC)c(CC2c3cc(O)c(Cl)cc3CCN2C)cc1OC (stereo unspecified) | 0.575
20 | CCc1cn2c3c(cc(C(=O)N[C@@H](Cc4ccccc4)[C@H](O)CNCc4ccc(C)cc4)cc13)N(C)S(=O)(=O)CC2 | 0.547
21 | COc1cccc(-c2cc(C(=O)Nc3cc(Oc4ccc(O)cc4)cc([N+](=O)[O-])c3)on2)c1 | 1.05
22 | COc1ccc(NC(=O)[C@H](CC(C)C)Nc2cc(C)nc(NCCOc3ccccc3)n2)cc1 | 0.8
23 | CC(C)(C)c1ccc(C(=O)NC2CCC(CCN3CCc4ccc(S(C)(=O)=O)cc4CC3)CC2)cc1C(F)(F)F (stereo unspecified) | 1.22
24 | CCCCCCNCCOc1ccc(-c2nc(-c3ccccc3)c(-c3ccccc3)[nH]2)cc1 | 0.669

Row | Structure (SMILES) | XC50 [µM]
25 | Cc1cc(N[C@@H](CC(C)C)C(=O)NCCOc2ccccc2)nc(NCCc2ccccc2)n1 | 1.51
26 | COc1ccc2nccc([C@@H](O)CN3CCC(NC(=O)C(c4ccsc4)N4CCN(c5ccccc5)CC4)CC3)c2c1 (stereo partly specified) | 0.442
27 | CC(C(=O)OCCOCn1cnc2c(=O)[nH]c(N)nc21)N(C)C(=O)OC(C)(C)C (stereo unspecified) | 1
28 | Cc1c(C)n(C2CCCC2)c2ncnc(OC3CCN(CC(=O)NC4CC4)CC3)c12 | 0.79
29 | O=C(Nc1ccc(C(F)(F)F)cc1)c1cccc(S(=O)(=O)NC2CCN(CC3CCCCC3)C2)c1 (stereo unspecified) | 0.69
30 | CCCc1cn2c3c(cc(C(=O)N[C@@H](Cc4ccccc4)[C@H](O)CNC4CCOCC4)cc13)N(CC)S(=O)(=O)CC2 | 0.0988
31 | COc1ccc(C2=C(Nc3ccc4oc5ccccc5c4c3)c3ccccc3C2=O)cc1 | 0.83
32 | O=C(COc1ccc(Cl)c(Cl)c1)NCCCCCN1CCCN(C(=O)Nc2ccc(Cl)c(Cl)c2)CC1 | 1.73
33 | COc1cc(F)c2nccc([C@@H](O)CN3CCC(NCc4ccc5c(n4)NC(=O)CS5)C(F)C3)c2c1 (stereo partly specified) | 1.17
34 | COc1cccc(CCNC(C)Cc2ccc(OCCCCOc3ccccc3)cc2)c1 (stereo unspecified) | 0.741
35 | O=C(Nc1ccc(OC(F)(F)F)cc1)NC1CCN(c2ccnc3ccccc23)C1 (stereo unspecified) | 0.244
36 | COc1ccc2[nH]cc(C3CCN(CCC4CCN(C(=O)/C=C/c5ccc(Cl)c(Cl)c5)CC4)CC3)c2c1 | 0.862
37 | Fc1ccc(Nc2ccnc3cc(-c4ccc(CNCCN5CCOCC5)o4)ccc23)c(Cl)c1 | 0.186
38 | CN(C)CCOc1ccc(-c2cc(-c3ccncc3)c(-c3ccc(Cl)c(O)c3)o2)cc1 | 0.214
39 | Cc1cccc2nc(-c3ccc(-c4ccc(CN5CCCC5CN)cc4)cc3)[nH]c12 (stereo unspecified) | 0.815
40 | FC(F)(F)COc1c(CNCCCCCCNCc2ccc3ccccc3c2OCC(F)(F)F)ccc2ccccc12 | 0.761
41 | Cc1cccc2nc(-c3cccc(-c4cccc(NC(=O)Nc5ccsc5)c4)c3)[nH]c12 | 0.17
42 | O=C(N[C@@H](Cc1ccccc1)[C@H](O)CNCCC(F)(F)F)c1cccc(CCC2CC2)c1 | 1.02
43 | O=C(/C=C/c1ccc(Cl)c(Cl)c1)N1CCC(CCN2CCC(c3c[nH]c4ccccc34)CC2)CC1 | 0.602
44 | CC(=O)Nc1ccc(C(=O)Nc2ccc(-c3cccc(-c4nc5cccc(C)c5[nH]4)c3)cc2)cn1 | 0.265
45 | Cc1cc(N[C@@H](Cc2ccccc2)C(=O)NCc2cccs2)nc(NCCc2ccc(F)cc2)n1 | 0.854
46 | Cc1cc(OCC2CCN(c3ccc(C(=O)NC4CC4)cn3)CC2)ccc1F | 0.868
47 | CS(=O)(=O)Nc1cccc(-c2cnc3[nH]cc(-c4ccc(CN)cc4)c3c2)c1 | 0.986
48 | Cc1cccc2nc(-c3ccc(-c4cccc(CNCCN5CCNCC5)c4)cc3)[nH]c12 | 1.23

Row | Structure (SMILES) | XC50 [µM]
49 | COc1cc(CN2CCC(N3CCc4cc(NC(=O)c5cc(C)on5)ccc43)C2)ccc1F (stereo unspecified) | 0.607
50 | CCS(=O)(=O)c1ccc(-c2cnc3[nH]cc(-c4ccc(N)cc4)c3c2)cc1 | 0.851
51 | COc1ccc(-c2nc(-c3ccc([N+](=O)[O-])cc3)no2)cc1OC | 0.409
52 | CC[C@H](C)CNC(=O)c1ccnc(-c2ccc(CNC3Cc4ccccc4C3)cc2)c1 | 0.569
53 | CCCc1ccc(S(=O)(=O)NC2CCN(c3ccnc(Nc4ccc(OC)cc4)n3)C2)cc1 (stereo unspecified) | 1.19
54 | COc1ccc(C)c(Nc2ccnc(Nc3ccc(-c4cnc[nH]4)cc3)n2)c1 | 1.37
55 | Cc1nc(-c2ccc(-c3ccc(NC(=O)c4coc5ccc(N6CC(C)N(C)C(C)C6)cc45)cc3)c(C)c2)no1 (stereo unspecified) | 0.767
56 | COc1cc(Cc2cnc(N)nc2N)cc(OC)c1OCCNC(=O)[C@@H](N)CCC(=O)O | 0.843
57 | COc1c(C2CCN(CCCCNC(=O)c3ccc(-c4ccc(C#N)cc4)cc3)CC2)cc(Cl)c2c1CCCC2 | 0.776
58 | COc1ccc2nccc([C@@H](O)CN3CCC(NC(=O)c4ccc(C5(C(F)(F)F)N=N5)cc4)CC3)c2c1 | 0.931
59 | Cc1cccc2nc(-c3cccc(-c4ccc(CNCCc5ccncc5)cc4)c3)[nH]c12 | 0.119
60 | CCOc1ccc(N2CCN(CCCCNC(=O)c3ccc(NC(=O)c4ccc(Cl)cc4)cc3)CC2)c(OCC)c1 | 0.567
61 | COc1ccc(CN2CCN(CCOC(c3ccc(F)cc3)c3ccc(F)cc3)CC2)c(O)c1 | 0.733
62 | COc1ccc2c(=NN=Cc3ccccc3Cl)cc(C)[nH]c2c1 | 0.373
63 | O=C(CCc1cccc(O)c1)NCC(NCCCNc1cc(=O)c2ccccc2[nH]1)c1cc(Br)cc(Br)c1 (stereo unspecified) | 1.17
64 | COc1ccccc1NS(=O)(=O)c1cc(C(=O)Nc2ccc(N3CCOCC3)c(S(=O)(=O)Nc3ccccc3Cl)c2)ccc1Cl | 0.832
65 | NS(=O)(=O)c1cccc(N/C=C2\C(=O)Nc3ccc(S(=O)(=O)Cc4c(Cl)cccc4Cl)cc32)c1 | 0.72
66 | CCCCCCN1CCC(NCc2cccc(C(F)(F)F)c2)CC1 | 0.246
67 | COc1ccc2c(NN=Cc3ccccc3Cl)ccnc2c1 | 0.622
68 | CCNC(=O)Nc1cccc(-c2cccc(-c3nc4cc(C(F)(F)F)ccc4[nH]3)c2)c1 | 0.678
69 | CC(=O)N(C)c1cccc(C(=O)Nc2cccc(-c3cccc(-c4nc5cccc(C)c5[nH]4)c3)c2)c1 | 0.617
70 | CCN(c1ccc(F)cc1)S(=O)(=O)c1cc(Br)cc2c1N(C(=O)C1CC1)CC2 | 0.943
71 | O=c1n(CC2CCCCC2)c2cc(Cl)cc(OCCNc3ccncc3)c2n1CC1CCCCC1 | 0.593
72 | O=c1cc(NCCCNC2CCOc3c(Cl)cccc32)[nH]c2ccccc12 (stereo unspecified) | 0.832

Row | Structure (SMILES) | XC50 [µM]
73 | CCN(CC)Cc1cc(NC(=O)c2ccccc2O)ccc1Oc1ccc(Cl)cc1 | 0.827
74 | CCN(C(=O)CSc1cc(C)c2cc(C)cc(C)c2n1)C1CCS(=O)(=O)C1 (stereo unspecified) | 0.667
75 | Cc1cc(C(F)(F)F)cc(-n2ncc(-c3ccc(C(=O)NCc4ccccc4N)cc3)c2N)n1 | 0.453
76 | COc1cc2nc(NCCCO)nc(Nc3ccc(Oc4ccccc4)cc3)c2cc1OC | 0.145
77 | O=[N+]([O-])c1cccc(CNC2CCN(Cc3ccc(Cl)c(Cl)c3)CC2)c1 | 0.456
78 | O=c1c2ccccc2[nH]c2nc3ccccc3c(Nc3ccccc3)c12 | 0.141
79 | CCOC(=O)Nc1cc(-c2csc(N=C(N)N)n2)cc([N+](=O)[O-])c1 | 0.816
80 | CC1(C)NC(N)=NC(=N)N1OCc1ccc(-c2ccccc2)cc1 | 0.0032
81 | COc1ccc2[nH]ccc(=NN=Cc3ccc(F)cc3)c2c1 | 0.72
82 | O=C(Nc1cccc(-c2nn3ccccc3c2-c2ccnc(Nc3ccccc3)n2)c1)c1cc(F)ccc1F | 0.953
83 | CNC(=O)C(NC(=O)c1ccccc1C(=O)OC)c1ccccc1 (stereo unspecified) | 0.556
84 | CCC(C)(C)C1CCc2[nH]c3ccccc3c(=O)c2C1 (stereo unspecified) | 0.384
85 | FC(F)(F)c1ccc2nccc(NCc3ccccc3)c2c1 | 1.15
86 | Cc1nnc2c(NC(=O)NC3CCCC3)cc3cc(-c4ccc(CN5CCN(C)CC5)cc4)ccc3n12 | 1.02
87 | CSc1ccc(CN2CCC(CNC(=O)c3cc(-c4ccccc4F)cs3)C2)cc1 (stereo unspecified) | 1.14
88 | COc1c(C)cc(I)cc1CNCCCNc1cc(=O)c2ccccc2[nH]1 | 1.28
89 | CCOc1cc(C(=O)Nc2ccc(-c3nc4ccccc4[nH]3)cc2)cc(OCC)c1OCC | 0.234
90 | Cc1ccc(NC(=O)Nc2ccc(Cn3ncc(N4CCCNCC4)c(Cl)c3=O)cc2)cc1 | 0.918
91 | CNC(=O)C1Cc2c([nH]c3c(C)cccc23)C2(N1)C(=O)Nc1ccc(OC(F)(F)F)cc12 (stereo unspecified) | 0.464
92 | CC(CO)(CO)NCc1cc2ccc3ccsc3c2c2ccccc12 | 0.229
93 | CCOC(=O)c1c(C)n(-c2ccccc2)c2ccc(OC(=O)c3ccc(S(=O)(=O)N(CC)CC)cc3)cc12 | 0.748
94 | CCCCCCCC1CC(CC(=O)Nc2ccnc3ccc(OC)cc23)CN1 (stereo unspecified) | 0.511
95 | CC(C)CC1(C(=O)OC(C)(C)C)CC(C(=O)OC(C)(C)C)C(c2cccs2)N1C(=O)c1ccc(C(C)(C)C)cc1 (stereo unspecified) | 0.137
96 | O=C(N[C@@H](Cc1ccccc1)C(=O)NC1CCCCC1)c1ccc(O)c(-c2cccc(C(F)(F)F)c2)c1 | 0.809
